Experimental data reported in PubChem BioAssay (NCI).
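Values below derive from 48-hour exposures of cells grown in 96-well plates, with endpoints linearly interpolated between the two concentrations bracketing the appropriate inhibition level. At the GI50, growth is halved. TGI: total growth inhibition.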

How the values were obtained:
Assay in all cases: inhibition of tumour cell growth, NCI panel, 48 h
[1] = system: HT29 colon
[2] = system: HOP-92 NSCLC
[3] = system: KM12 colon
[4] = system: SK-MEL-2 melanoma
[5] = system: UACC-62 melanoma
[6] = system: CAKI-1 renal
[7] = system: TK-10 renal
[8] = system: SNB-75 CNS
[9] = system: UACC-257 melanoma
[10] = system: SK-MEL-5 melanoma
[11] = system: NCI-H522 lung
[12] = system: A498 renal
[13] = system: NCI-H23 lung
[14] = system: BT-549 breast

Question: For `C=C(C)[C@@H]1CC[C@]2(C(=O)N[C@H](CO)Cc3ccccc3)CC[C@]3(C)[C@H](CC[C@@H]4[C@@]5(C)CCCNC(C)(C)[C@@H]5CC[C@]43C)[C@@H]12`, which GI50 [1] is on record?
Answer: Its GI50 is 240 nM.

Question: And the TGI [1]?
Answer: The TGI was 539 nM.

Question: And the GI50 [2]?
Answer: Its GI50 is 1420 nM.

Question: What about the TGI [2] of the same compound?
Answer: The TGI was 3.02 µM.

Question: And the GI50 [3]?
Answer: Its GI50 is 1470 nM.

Question: What about the TGI [3] of the same compound?
Answer: Its TGI is 2910 nM.

Question: And the GI50 [4]?
Answer: Its GI50 is 1720 nM.

Question: And the TGI [4]?
Answer: The TGI was 3.18 µM.

Question: And the GI50 [5]?
Answer: The GI50 was 1760 nM.

Question: And the TGI [5]?
Answer: The TGI was 3.39 µM.

Question: What about the GI50 [6] of the same compound?
Answer: The GI50 was 1490 nM.

Question: What about the TGI [6] of the same compound?
Answer: The TGI was 2890 nM.

Question: And the GI50 [7]?
Answer: The GI50 was 1610 nM.

Question: And the TGI [7]?
Answer: The TGI was 3.08 µM.

Question: And the GI50 [8]?
Answer: The GI50 was 1430 nM.

Question: And the TGI [8]?
Answer: Its TGI is 2870 nM.

Question: What about the GI50 [9] of the same compound?
Answer: Its GI50 is 1780 nM.

Question: And the TGI [9]?
Answer: Its TGI is 3.34 µM.

Question: What about the GI50 [10] of the same compound?
Answer: Its GI50 is 1670 nM.

Question: What about the TGI [10] of the same compound?
Answer: The TGI was 3.07 µM.

Question: And the GI50 [11]?
Answer: Its GI50 is 1750 nM.

Question: What about the TGI [11] of the same compound?
Answer: The TGI was 3.35 µM.

Question: And the GI50 [12]?
Answer: Its GI50 is 1490 nM.

Question: What about the TGI [12] of the same compound?
Answer: The TGI was 2940 nM.

Question: `CC1NC(=O)C2Cc3ccc(O)c(c3)Oc3ccc(cc3)C(O)C(C(=O)N2C)N(C)C(=O)C(C)NC(=O)C(Cc2ccc(O)cc2)N(C)C(=O)C(C)NC1=O` (stereo not drawn) was tested. Which TGI [2] did it give?
Answer: Its TGI is > 100 µM.

Question: What about the TGI [13] of the same compound?
Answer: Its TGI is > 100 µM.

Question: And the TGI [9]?
Answer: Its TGI is > 100 µM.

Question: And the TGI [14]?
Answer: Its TGI is > 100 µM.
